# Data: patent US7064144B2, “Imidazole derivatives as adenosine deaminase inhibitors” (Astellas Pharma Inc., priority 2001, dated 2006)
# pIC50: −log10 of the molar value.
# Test system: not given
# Assay: not given
# Conditions: not given
row,Compound,melting point
1,C[C@H](O)[C@H](CSc1cccc2ccccc12)n1cnc(C(N)=O)c1.Cl,> 168 °C (dec.)
2,"C[C@H](O)[C@@H](CCOc1ccc(-c2ccccc2)cc1)n1cnc(C(N)=O)c1 [Example 28, 1-[(2S,3R)-5-(1,1′-biphenyl-4-yloxy)-2-hydroxy-3-pentyl]imidazole-4-carboxamide]",191 to 193 °C
3,"C[C@H](O)[C@@H](COc1ccc(Cl)c(Cl)c1)n1cnc(C(N)=O)c1 [Example 81, 1-{(1R,2S)-1-[(3,4-dichlorophenoxy)methyl]-2-hydroxypropyl}-1H-imidazole-4-carboxamide]",115 to 121 °C
4,"C[C@H](O)[C@H](CSc1ccc2ccccc2c1)n1cnc(C(N)=O)c1 [Example 102, 1-{(1R,2S)-2-hydroxy-1-[(2-naphthylthio)methyl]propyl}-1H-imidazole-4-carboxamide]",> 108 °C (dec.)
5,"C[C@H](O)[C@H](CSc1cccc(Cl)c1Cl)n1cnc(C(N)=O)c1 [Example 104, 1-{(1R,2S)-1-{[(2,3-dichlorophenyl)thio]methyl}-2-hydroxypropyl}-1H-imidazole-4-carboxamide]",> 120 °C (dec.)

# Continued, values first:
row,melting point,Compound
1,211 to 213.5 °C,"C[C@H](O)[C@@H](CCOc1ccc2c(ccn2C)c1)n1cnc(C(N)=O)c1 [Example 75, 1-[(2S,3R)-2-hydroxy-5-(1-methyl-1H-indol-5-yloxy)-3-pentyl]imidazole-4-carboxamide]"
2,166 to 168 °C,"C[C@H](O)[C@@H](CCOc1cccc(-c2ccc(Cl)nc2)c1)n1cnc(C(N)=O)c1 [Example 87, 1-{(2S,3R)-5-[3-(6-chloro-3-pyridyl)phenoxy]-2-hydroxy-3-pentyl}imidazole-4-carboxamide]"
3,139 to 141 °C,"C[C@H](O)[C@@H](CCOc1ccc2ccc(Cl)cc2c1)n1cnc(C(N)=O)c1 [Example 97, 1-[(2S,3R)-5-(7-chloro-2-naphthyloxy)-2-hydroxy-3-pentyl]imidazole-4-carboxamide]"

# Target: T1, Human ADA (Homo sapiens, UniProt P00813)
# T1 construct: made in house
# T1 sequence (P00813 1-363): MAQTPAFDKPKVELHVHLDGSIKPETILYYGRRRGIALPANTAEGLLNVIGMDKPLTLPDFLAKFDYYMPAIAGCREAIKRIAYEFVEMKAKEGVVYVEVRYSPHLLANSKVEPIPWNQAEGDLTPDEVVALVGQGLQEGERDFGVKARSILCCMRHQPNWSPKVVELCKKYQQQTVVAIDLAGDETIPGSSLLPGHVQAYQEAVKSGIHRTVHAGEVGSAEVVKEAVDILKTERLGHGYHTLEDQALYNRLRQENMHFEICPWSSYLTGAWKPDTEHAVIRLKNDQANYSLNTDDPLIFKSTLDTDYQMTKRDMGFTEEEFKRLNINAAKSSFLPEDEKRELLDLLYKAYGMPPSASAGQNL
# Assay: Adenosine Deaminase (ADA) Enzyme Assay
# Format: biochemical
# Conditions: 50% inhibition of Vmax vs vehicle; 0.16 μg/ml ADA, 0.1 mM adenosine, 10 mM phosphate buffer saline pH 7.4, room temperature, A265
# Text: Adenosine Deaminase (ADA) Enzyme Assay
# • 1-[(2S,3R)-5-(1,1′-biphenyl-3-yloxy)-2-hydroxy-3-pentyl]imidazole-4-carboxamide (Example 20) • 1-{(2S,3R)-2-hydroxy-5-[3-(2-thienyl)phenoxy]-3-pentyl}imidazole-4-carboxamide (Example 32) • 1-[(2S,3R)-2-hydroxy-5-(2-quinolyloxy)-3-pentyl]imidazole-4-carboxamide (Example 49) • 1-[(2S,3R)-2-hydroxy-5-(2-naphthylthio)-3-pentyl]imidazole-4-carboxamide (Example 76) • 1-[(2S,3R)-2-hydroxy-5-(2-quinolylthio)-3-pentyl]imidazole-4-carboxamide (Example 78) Test Method:
# The reaction velocity (V) is measured by a change in absorbance at 265 nm (A265) resulting from the deamination of adenosine. Human ADA was expressed and purified from ADA-deficient bacterial strain. Reaction mixtures of a total volume of 200 μl contained 0.16 μg/ml of ADA and 0.1 mM of adenosine and test compound in 10 mM phosphate buffer saline (pH 7.4). The reaction was started by addition of ADA to a mixture of adenosine and test compound. The reaction was followed at room temperature by recording decrease in A265 for 3 minutes in SPECTRAmax 250 (Molecular Devices, USA) to automatically calculate Vmax. Inhibitory potency of test compound was expressed as IC50 value, the drug concentration required to produce 50% inhibition of Vmax in comparison to vehicle treatment.
row,Compound,pIC50
1,"C[C@H](O)[C@@H](CCOc1ccc2ccccc2n1)n1cnc(C(N)=O)c1 [Example 49, 1-[(2S,3R)-2-hydroxy-5-(2-quinolyloxy)-3-pentyl]imidazole-4-carboxamide]",> 7.70
2,"C[C@H](O)[C@@H](CCSc1ccc2ccccc2c1)n1cnc(C(N)=O)c1 [Example 76, 1-[(2S,3R)-2-hydroxy-5-(2-naphthylthio)-3-pentyl]imidazole-4-carboxamide]",> 7.70
3,"C[C@H](O)[C@@H](CCSc1ccc2ccccc2n1)n1cnc(C(N)=O)c1 [Example 78, 1-[(2S,3R)-2-hydroxy-5-(2-quinolylthio)-3-pentyl]imidazole-4-carboxamide]",> 7.70

# More lines, now with the values ahead:
row,pIC50,Compound
1,> 7.70,"C[C@H](O)[C@@H](CCOc1cccc(-c2ccccc2)c1)n1cnc(C(N)=O)c1 [Example 20, 1-[(2S,3R)-5-(1,1′-biphenyl-3-yloxy)-2-hydroxy-3-pentyl]imidazole-4-carboxamide]"
2,> 7.70,"C[C@H](O)[C@@H](CCOc1cccc(-c2cccs2)c1)n1cnc(C(N)=O)c1 [Example 32, 1-{(2S,3R)-2-hydroxy-5-[3-(2-thienyl)phenoxy]-3-pentyl}imidazole-4-carboxamide]"
